Here are results for one molecule from PMC6277198, “Molecular basis for activation of lecithin:cholesterol acyltransferase by a compound that increases HDL cholesterol” (eLife, 2018).

What all share (assay): DHE acyltransferase assay with peptide-based HDLs
Format in all cases: biochemical

Assay [1] addresses T1, LCAT R244H (Homo sapiens, UniProt P04180, R268H).
T1 construct: hydrolysis of 4-methylumbelliferyl palmitate (MUP) by full-length LCAT; made in house; host or cells: HEK293F (transient transfection, secreted)
T1 sequence (P04180 25-440 R268H): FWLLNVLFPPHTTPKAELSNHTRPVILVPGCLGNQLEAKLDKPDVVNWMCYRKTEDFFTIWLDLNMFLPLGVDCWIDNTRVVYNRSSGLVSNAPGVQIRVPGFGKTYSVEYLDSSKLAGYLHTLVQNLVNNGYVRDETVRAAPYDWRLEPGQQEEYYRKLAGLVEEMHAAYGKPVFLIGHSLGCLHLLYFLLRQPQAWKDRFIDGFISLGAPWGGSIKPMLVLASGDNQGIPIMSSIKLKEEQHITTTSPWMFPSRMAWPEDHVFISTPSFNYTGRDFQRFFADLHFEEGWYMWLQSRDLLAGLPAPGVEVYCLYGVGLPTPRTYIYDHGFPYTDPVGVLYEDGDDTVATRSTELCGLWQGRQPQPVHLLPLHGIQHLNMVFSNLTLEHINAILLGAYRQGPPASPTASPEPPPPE
As for the experimental part: (§1) Peptide-based HDLs were used in this assay as there is no difference between peptide HDLs and ApoA-I HDLs in both HDL binding and acyltransferase assays ([Manthei et al., 2017]). The peptide HDLs were made using the ESP24218 peptide with the sequence […] ([Dassuex et al., 1999]; [Li et al., 2015]) with a DPPC:POPC:DHE ratio of 47:47:6 as previously described ([Manthei et al., 2017]). The assay was performed in 384-well low volume black microplates (Corning 4514) with a total assay volume of 16 μL. In each reaction, LCAT was diluted in assay buffer to 15 μg mL^−1 in the presence of either 1% DMSO or 10 μM 2 with 1% DMSO. Compound 2 was used in this assay because it has lower background fluorescence than 1. The DHE HDLs were diluted in 1X PBS with 1 mM EDTA and 5 mM β-mercaptoethanol. 8 μL of the HDLs were added to the plate, and the reactions were initiated with 8 μL of LCAT, so that LCAT was assayed at 7.5 μg mL^−1 with and without 5 μM compound with a range of DHE concentrations from 0 to 50 μM. The reactions were stopped after 25 min at 37 °C with the addition of 4 μL of stop solution (1X PBS with 1 mM EDTA, 5 U mL^−1 cholesterol oxidase (COx), and 7% Triton X100). Following the addition of stop solution, the plates were incubated for another 60 min at 37 °C to allow for the COx to react. After the plates were re-equilibrated at room temperature, fluorescence was determined on a SpectraMax plate reader with excitation at 325 nm and emission at 425 nm, with a 420 nm cutoff. Reactions without LCAT were used for background subtraction, and reactions without LCAT and stop solution lacking COx were used to generate a standard curve for DHE. Reactions were performed in triplicate with three independent experiments per LCAT variant. Data were processed via background subtraction to remove excess fluorescence that results from the higher concentrations of DHE. […] Outliers were removed using automatic outlier elimination within Prism. For statistical analysis, the Vmax for each variant was compared to WT using a one-way analysis of variance followed by Tukey’s multiple comparisons post-test in GraphPad Prism.
(§2) To determine EC50 values, compound 2 was titrated from 0.004 to 10 μM, and the DHE concentration was set at 50 μM. LCAT was diluted in assay buffer and compound 2 dilutions were made with assay buffer containing 5.3% DMSO. 1.5 μL compound was added, then 6.5 μL LCAT, followed by 8 μL DHE. Dilutions were adjusted so that LCAT was assayed at 7.5 μg mL^−1, as above. All values were background subtracted to buffer with the same concentration of compound 2. A standard curve was included in one experiment with DHE from 0 to 50 μM in order to adjust the final fluorescence values to a rate by dividing by the slope of the line and time (25 min), as above. Outliers were removed using automatic outlier elimination within Prism. For statistical analysis, the EC50 for each variant was compared to WT using a one-way analysis of variance followed by Tukey’s multiple comparisons post-test in GraphPad Prism.

For assay [2], the target named is T2, LCAT Y51S/G71I (Homo sapiens, UniProt P04180, G95I/Y75S).
T2 construct: hydrolysis of 4-methylumbelliferyl palmitate (MUP) by full-length LCAT; made in house; host or cells: HEK293F (transient transfection, secreted)
T2 sequence (P04180 25-440 Y75S/G95I): T1 sequence (P04180 25-440 R268H) with Y51S, G71I, H244R
How it is done:
as §1, §2

The target of assay [3] is T3, LCAT R244A (Homo sapiens, UniProt P04180, R268A).
T3 construct: hydrolysis of 4-methylumbelliferyl palmitate (MUP) by full-length LCAT; made in house; host or cells: HEK293F (transient transfection, secreted)
T3 sequence (P04180 25-440 R268A): T1 sequence (P04180 25-440 R268H) with H244A
How it is done: as §1, §2

[4] abbreviates: compound 2 titrated from 0.004 to 10 μM, DHE 50 μM.
[5] abbreviates: highest concentration tested, 10 μM compound 2.

Structures are written as SMILES. Substitutions are numbered along the chain they refer to.

Take `O=C1CC(O)(C(F)(F)F)c2c(C3CCN(c4cnc(C(F)(F)F)cn4)CC3)n[nH]c2N1` (stereo not drawn) [compound 2, 4-Hydroxy-4-(trifluoromethyl)−3-(1-(5-(trifluoromethyl)pyrazin-2-yl)piperidin-4-yl)−4,5-dihydro-1H-pyrazolo[3,4-b]pyridin-6(7H)-one]: the concentration for a half-maximal effect (EC50) (in general, the midpoint of the concentration-response curve) turned out to be 4.6 ± 2 µM in assay [1] (setting [4]) and 0.76 ± 0.2 µM in assay [3] (setting [4]). For the same molecule, the acyltransferase rate in assay [1] (setting [5]) was 26 µM/h; in assay [3] (setting [5]), 18 µM/h. Also, the “acyltransferase activity in the presence of compound 2” value in assay [2] (Y51S/G71I variant) is “failed to increase activity”. Also, the “DHE assay EC50” value in assay [2] (Y51S/G71I, compound 2 titrated from 0.004 to 10 μM, DHE 50 μM) is on record as “no effect”.
